102 compounds from ChEMBL document CHEMBL3507680, “University of Dundee, Gates Library screen for HepG2 cell viability” can be followed below.

This data set is described as follows: Human HepG2 cell viability assay in 384 well format. It counts as toxicity, cell-based. Details: dose 125 nL, time 70.5 hour; cytotoxicity at 70.5 h: concentration not given beside the values. The settings on record: HepG2 cells, read-out: Inhibition.
For `O=C(NCC1CC1)Nc1cnc2ccc(F)cc2c1O`, the cytotoxicity at 70.5 h is -3.07%.
With `O=C(NCCO)Nc1cnc2cc(Cl)ccc2c1O` the figure was -5.27%; with `COCCC(=O)N1CCCC(c2nc(O)cc(-c3ccncc3)n2)C1` (configuration not stated), 18%; with `CC(C)(C)C(=O)N1CCC(c2nc(O)cc(-c3ccncc3)n2)CC1`, -1.05%.
`CCn1cc(CN2CCC(O)(Cn3ccc4ncccc43)CC2)cn1`: the cytotoxicity at 70.5 h was -0.72%.
As for `OC1(Cn2ccc3ncccc32)CCN(Cc2cc(F)cc(F)c2)CC1`, the cytotoxicity at 70.5 h was 5.69%.
With `c1cnc2[nH]c(C3CCNCC3)c(CN3CCOCC3)c2c1` the figure was -1.47%; with `CCC(CC)C(=O)NC1CCCc2nc(N3CCOCC3)ncc21` (configuration not stated), -4.12%; with `Cc1ccc(=O)n(CC2(O)CCN(Cc3cccs3)CC2)n1`, -8.17%.
With `CCn1cc(CN2CCC(O)(Cn3nc(C)ccc3=O)CC2)cn1` the figure was -4.18%; with `O=C(NC1CC1)C1(Cc2cc(-c3ccc(F)cc3F)no2)CCOCC1`, 0.221%.
With `Cc1ncsc1C(=O)N1CCCC(c2cc(C(F)F)n3ncnc3n2)C1` (configuration not stated) the figure was 0.833%; with `c1cnc2[nH]c(C3CCCC3)c(CN3CCCCC3)c2c1`, -7.43%.
In the case of `CSc1ccc(CN2C[C@@H]3CC[C@@](O)(c4ccc(C)cn4)[C@@H]3C2)cc1`, the cytotoxicity at 70.5 h amounted to 41.8%.
With `Cc1ccc([C@]2(O)CC[C@H]3CN(Cc4ccc(Cl)cc4Cl)C[C@H]32)nc1` the figure was 27.6%.
With `CCN1CCN(Cc2c(C3CCCC3)[nH]c3ncccc23)CC1` the figure was -6.15%.
On to `CC(=O)NC1CCN(C(=O)Nc2cccc(SC(F)F)c2)CC1`, for which the cytotoxicity at 70.5 h is -0.185%.
With `CC(NC(=O)CCN1CCOC1=O)(c1ccccc1)c1ccccc1` the figure was 0.0243%; with `CC1CCCCN1C(=O)CCn1cnc2sccc2c1=O` (configuration not stated), -5.84%.
With `CCC(C)(NC(=O)CCN1CCOC1=O)C(=O)OC` (configuration not stated) the figure was 20.8%; with `O=C(c1cnc(NCc2cccnc2)c(Cl)c1)N1CCCCC1`, -12.2%.
With `CC(C)(C)C(N)c1nc(-c2nnc[nH]2)no1` (configuration not stated) the figure was -2.07%; with `Cc1ccc(C)c(Oc2ccc(CNC(=O)C3CCC(=O)N3)cn2)c1` (configuration not stated), -4.69%; with `O=C(Nc1ccc(-c2csnn2)cc1)N1CCN2CCCCC2C1` (configuration not stated), 5.22%.
As to `CCOc1ccc(NC(=O)NC2CCc3[nH]ncc3C2)cn1` (configuration not stated), the cytotoxicity at 70.5 h was -2.96%.
With `CCSc1ccc(NC(=O)NC2CCc3[nH]ncc3C2)cn1` (configuration not stated) the figure was -4.32%; with `Cc1ccc2c(c1)N(C(=O)c1nccnc1N)CC(C)O2` (configuration not stated), -3.11%; with `O=C(NCC1CCCN1CCc1ccccc1)NCC1(O)CCC1` (configuration not stated), -9.32%.
`Cc1noc(C)c1CN(C)C(=O)C1CCCN1S(N)(=O)=O` (configuration not stated): the cytotoxicity at 70.5 h is 17.7%.
For `CC(C)OCCS(=O)(=O)NC1CCN(C2CCCC2)C1` (configuration not stated), the cytotoxicity at 70.5 h is 8.61%.
With `O=C(C1CCCOC1)N(CC(F)F)c1cccc(Cl)c1` (configuration not stated) the figure was 2.67%.
With `CCC(NC(=O)Cn1ccc(=O)n(C)c1=O)c1ccc(OC)cc1` (configuration not stated) the figure was -9.09%.
Regarding `CCC(NC(=O)Cn1ccc(=O)n(C)c1=O)c1ccccc1OC` (configuration not stated), the cytotoxicity at 70.5 h is -7%.
For the compound `NC(=O)C(NC(=O)CCc1ccc(Cl)s1)c1ccccc1` (configuration not stated), the cytotoxicity at 70.5 h was -7.77%.
With `O=S1(=O)CCC(c2nnc(-c3cnc4onc(C5CC5)c4c3)o2)C1` (configuration not stated), the cytotoxicity at 70.5 h was -2.78%.
With `c1nc2onc(C3CC3)c2cc1-c1nnc(C2CC2)o1` the figure was 1.7%; with `COc1ccc(CNc2cc(-c3nc(C)no3)ccn2)c(OC)c1`, -1.3%.
With `Cc1nn(C)c(C)c1OCC(=O)N1CCCc2c(F)ccc(F)c21` the figure was 18.1%.
With `CS(=O)(=O)CCC(=O)N1CCC(c2ccc(F)c(F)c2)CC1` the figure was 2.26%; with `CC1CCC(N2CCC(NS(=O)(=O)CCOC(C)C)CC2)CC1` (configuration not stated), 14.8%; with `CCC1COCCN1C(=O)CNC(=O)c1ccoc1C` (configuration not stated), -5.54%.
On to `Cc1noc(C)c1CN(C)C(=O)C1CCCCN1CC(C)C` (configuration not stated), for which the cytotoxicity at 70.5 h turned out to be 5.24%.
With `COCCCN(C)c1nc(-c2ccncc2)nc(C)c1C` the figure was -5.34%.
With `Cc1cccc2nc(CN3CCCC(C)C3)cc(=O)n12` (configuration not stated) the figure was 13.9%.
With `Cc1noc(C)c1Cc1nc(C2CC2)no1` the figure was -2.18%; with `CC1COc2ccccc2N1C(=O)CCc1cscn1` (configuration not stated), 3.54%.
Turning to `CC(C)N(CC(=O)Nc1ccc(Br)cc1Cl)Cc1cccnc1`, the cytotoxicity at 70.5 h was found to be 38.4%.
With `CCc1noc(CNc2cc3c(cc2Cl)OCCCO3)n1` the figure was -11%; with `Cc1ccc(C2CCCN2Cc2nc(-c3ccco3)no2)cc1` (configuration not stated), -1.81%.
With `Cc1cccc(C(=O)N(C)CC(=O)N2CCCC2)c1C` the figure was -14.8%.
As for `CC(C)C(=O)NCc1cc(Br)ccc1F`, the cytotoxicity at 70.5 h was -9.54%.
With `Cc1cc(C2CCCN2Cc2cc(-c3ccco3)on2)on1` (configuration not stated) the figure was -14.5%; with `Cc1cc(C2CCCN2Cc2nc(-c3ccco3)no2)on1` (configuration not stated), -0.568%.
With `Cc1cc(C2CCCN2Cc2nnc(-c3ccco3)o2)on1` (configuration not stated) the figure was -8.06%; with `Cc1noc(C)c1CS(=O)(=O)Cc1nc(C2CC2)no1`, -0.106%; with `CC(C)CNC(=O)c1ccc(NC(=O)NC(C)c2ccccn2)cc1` (configuration not stated), -5.93%.
As to `CCCNC(=O)c1ccc(NC(=O)NC(C)c2ccccn2)cc1` (configuration not stated), the cytotoxicity at 70.5 h was -8.01%.
With `COc1ccc(CNCCC(=O)N2CCc3sccc3C2)cc1O` the figure was 5.44%; with `CC(NC(N)=O)C(=O)NCc1ccc(Br)c(F)c1` (configuration not stated), 0.261%; with `CC1COc2ccccc2N1C(=O)c1cscn1` (configuration not stated), -9.82%.
For the compound `O=S(=O)(NCCCn1ccc2ccccc21)N1CCCCC1`, the cytotoxicity at 70.5 h worked out at 16.7%.
With `O=c1oc(-c2ccc(F)cc2)nn1CC1CCOC1` (configuration not stated) the figure was 16.4%.
Consider `Cc1c(Cl)cccc1NC(=O)CN(Cc1cccnc1)C(C)C`, for which the cytotoxicity at 70.5 h came out at 1.97%.
With `Cc1nc(NS(=O)(=O)c2cc(Br)ccc2C)no1` the figure was -11.8%; with `Cc1nc(NS(=O)(=O)c2cc(C)c(Br)cc2C)no1`, -14.1%; with `Cc1nc(CC(=O)N2c3ccccc3OCC2C)cs1` (configuration not stated), -9.24%.
With `COc1ccc(CN(C(=O)C2CCCOC2)c2ccncc2)cc1` (configuration not stated) the figure was -3.58%; with `Cc1noc(C)c1CN(C)CCc1nc(-c2cccc(Cl)c2)no1`, -10.4%; with `COC(=O)NCC(=O)N(C)Cc1csc(C)n1`, -4.39%.
With `CC(C)c1ccc2c(c1)CCCN2C(=O)CN(C)S(C)(=O)=O` the figure was -94.4%; with `O=C(CNc1cc(-n2cnnn2)ccc1F)NCc1ccccc1`, -118%.
Turning to `COCCc1nc(-c2cnn3c(C)cc(C)nc23)no1`, the cytotoxicity at 70.5 h was -107%.
On to `O=C(O)c1cc(S(=O)(=O)Nc2cccc3c2OCCO3)ccc1F`, for which the cytotoxicity at 70.5 h was -18.2%.
With `NC(=O)C1CN(c2ccc3cc(Br)ccc3n2)CCO1` (configuration not stated), the cytotoxicity at 70.5 h was -109%.
With `Cc1ccc(C(=O)N2CCOC3(CCCC3)C2)c(=O)[nH]1` the figure was -41.7%; with `N#Cc1cccc(Cl)c1NC1CCN(CC(N)=O)CC1`, -106%.
Take `CNC(=O)c1ccc(CNc2ccncc2Cl)cc1`: the cytotoxicity at 70.5 h was -98.3%.
With `CN(Cc1cnn(C)c1)C(=O)CCC(=O)c1ccc2c(c1)OCCO2` the figure was -82.6%; with `CCn1c(C)cc(C(=O)N2CCC(Nc3ccc(C)nn3)CC2)c1C`, -91.3%; with `CCOc1cc(Cl)ccc1CNC(=O)N(C)CC(C)(C)O`, -78.1%.
With `CNS(=O)(=O)c1cccc(CNc2ccc(C#N)cn2)c1` the figure was -7.11%; with `COc1cc(CNC(=O)Nc2nnc(C3CC3)s2)ccc1O`, -8.51%; with `COc1ncccc1CNC(=O)c1csc(Br)c1`, -8.18%.
Regarding `N#CCCN(Cc1ccco1)C(=O)CN1CCCC1c1cccs1` (configuration not stated), the cytotoxicity at 70.5 h worked out at 1.44%.
With `CN(Cc1ccco1)C(=O)NC(Cn1ccnc1)C(C)(C)C` (configuration not stated) the figure was -5.15%; with `COc1cc(CNC(=O)c2csc(Br)c2)ccn1`, -12.9%; with `CCc1nnsc1C(=O)NCc1c(C)nn(CCOC)c1C`, -7.41%.
For `CNS(=O)(=O)Cc1cccc(CNc2ccc(C#N)cn2)c1`, the cytotoxicity at 70.5 h is -10.5%.
With `O=C1CCN(C(=O)C2(c3ccc(F)cc3)CCCCC2)CCN1` the figure was -8.46%; with `O=C1CCN(C(=O)C2(c3ccc(F)cc3)CCCC2)CCN1`, -5.37%; with `Cc1nnc(C2Cc3ccccc3CN2Cc2nc(C3CC3)no2)o1` (configuration not stated), -5.34%.
With `O=C(NCCCN1CCOCC1)C(OC1CCCC1)c1ccccc1` (configuration not stated) the figure was -1.75%; with `CCc1nnc2n1CCN(C(=O)c1cnc3c(cnn3C(C)C)c1)C2`, -8.43%; with `CCCn1[nH]cc/c1=N\C(=O)CN1CCCC1Cn1nc(C)nc1C` (configuration not stated), -1.59%.
With `CN(C)CCn1c([C@@H]2CCCO2)cc2cccnc21` the figure was 2.42%; with `c1cnc2c(c1)cc([C@H]1CCCO1)n2CCN1CCCC1`, -1.04%.
For the compound `Cc1ccc2c(c1)CN(C(=O)c1cccnc1)C(CN(C)C)CO2` (configuration not stated), the cytotoxicity at 70.5 h was 3.4%.
With `Cc1ccc2c(c1)CN(C(=O)c1cnc(C)cn1)C(CN(C)C)CO2` (configuration not stated) the figure was 14.1%; with `CNC(=O)CCc1cc(C2CCNCC2)nc(C)n1`, -5.9%; with `COc1ccc(CN(Cc2cnc(N)nc2)CC2CCCO2)c(OC)c1` (configuration not stated), -2.54%.
For the compound `Cc1ccc(CN(Cc2[nH]cnc2C)C2CC(C)(C)NC(C)(C)C2)o1`, the cytotoxicity at 70.5 h was determined as 17.5%.
With `Cc1ccc(CN(Cc2ccncc2)C2CC(C)(C)NC(C)(C)C2)o1` the figure was -2.36%.
